ChEMBL document CHEMBL1157539, “Thousands of chemical starting points for antimalarial lead identification” (Nature, 2010)

These molecules were tested on Plasmodium falciparum (assay: GSK_TCMDC: Inhibition of Plasmodium falciparum 3D7 in whole erythrocytes, using parasite LDH activity as an index of growth.). Conditions: Plasmodium falciparum, 3D7.
Format: functional, organism-based

Point of comparison: `O=[N+]([O-])c1ccc(Nc2nc(N/N=C/c3cccc(O)c3)nc(N3CCCC3)n2)cc1`, XC50 1080 nM. Against it:
- CCN(CC)CCN(Cc1ccc(-c2ccc(C(F)(F)F)cc2)cc1)C(=O)Cn1c(CCc2ccc(F)c(F)c2F)nc(=O)c2ccc(F)cc21 — within 1.5-fold, 736 nM
- CCc1ccc2nc(-c3ccc(F)cc3)nc(SCC(=O)Nc3sc(C)c(C)c3C#N)c2c1 — 1.7-fold lower, 643 nM
- CN(C)CC(=O)NCC(NCCCNc1cc(=O)c2ccccc2[nH]1)c1cc(Br)cc(Br)c1 (stereo not drawn) — within 1.5-fold, 1050 nM
- CC(C)(CN)c1nc(-c2ccc(Br)c(O)c2)c(-c2ccncc2)[nH]1 — within 1.5-fold, 965 nM
- Cc1ccc(-c2ccc3c(c2)C=C(C(=O)NCC2CCN(CC4CCN(C(=O)/C=C/c5ccc(Cl)c(Cl)c5)CC4)CC2)CCC3)cc1 — within 1.5-fold, 777 nM
- Clc1ccc(CCNCCCCCCNCCc2ccc3c(c2)OCO3)cc1 — 1.6-fold higher, 1730 nM
- CC(=O)Nc1nc(C)c(-c2csc(Nc3ccc(Cl)cc3)n2)s1 — 4.2-fold lower, 258 nM
- O=C(Nc1ccc(N2CCN(Cc3cccc(F)c3)CC2)cc1)c1cccs1 — 1.6-fold lower, 682 nM
- Cc1cccc(C(=O)Nc2ccnc(N3CCC(N(C)Cc4cccc(O)c4)CC3)c2)c1 — within 1.5-fold, 920 nM
- O=C(Nc1ccc(Cn2ncc(N3CCCNCC3)c(Cl)c2=O)cc1)Nc1cc(F)cc(C(F)(F)F)c1 — within 1.5-fold, 767 nM
- CCCCCCc1cc2cc(-c3csc(C=Cc4ccccc4)n3)c(=O)oc2cc1O — within 1.5-fold, 970 nM
- CCCCCCCCOc1c(OCC)cc(Cc2cnc(N)nc2N)cc1OCC — within 1.5-fold, 1530 nM
- CN1CCN(c2ccc3nccc(CCN4CCC(NCc5ccc6c(n5)NC(=O)CO6)CC4)c3n2)CC1 — within 1.5-fold, 824 nM
- Cc1nnsc1C(=O)Nc1cccc(-c2ccc(-c3nc4cc(C(F)(F)F)ccc4[nH]3)cc2)c1 — 3.4-fold lower, 314 nM
- COc1ccc(N2CCN(CCc3ccc(NC(=O)c4ccc([N+](=O)[O-])cc4)cc3)CC2)c(OC)c1 — within 1.5-fold, 1170 nM
- Oc1ccc(-c2nc(-c3ccc4oc5ccc(-c6[nH]c(-c7ccc(O)cc7)nc6-c6ccccc6)cc5c4c3)c(-c3ccccc3)[nH]2)cc1 — within 1.5-fold, 1110 nM
- Cc1cc(C(=O)Nc2ccc3c(ccn3C3CCCN(Cc4ccc(C(F)(F)F)cc4F)CC3)c2)no1 (stereo not drawn) — within 1.5-fold, 765 nM
- Cc1nc(N)nc(N)c1-c1cc(Cl)c(N)c(Cl)c1 — within 1.5-fold, 805 nM
- COc1ccc2[nH]ccc(=NN=Cc3ccccc3F)c2c1 — 1.7-fold lower, 620 nM
- FC(F)(F)c1cccc(Nc2nc3nonc3nc2NC2C3CC4CC(C3)CC2C4)c1 (stereo not drawn) — 1.6-fold lower, 661 nM
- CCc1ccc2c(c1O)CCN(C)C2Cc1ccccc1Cl (stereo not drawn) — 4.3-fold lower, 251 nM
- NOCCCOc1ccccc1 — 3.4-fold lower, 321 nM
- Oc1ccc2ccccc2c1CNCC1CCCCC1 — 1.6-fold lower, 667 nM
- OC(c1ccc(Cl)cc1)(c1ccc(Cl)cc1)C(c1ccc(Cl)cc1)n1ccnc1 (stereo not drawn) — within 1.5-fold, 863 nM
- OCCN1CCN(C2Cc3ccc(F)cc3Sc3ccc(Cl)cc32)CC1 (stereo not drawn) — within 1.5-fold, 876 nM
- Cc1ccc(C(C)C)c(Oc2cnc(NC(CO)c3ccccc3)nc2N)c1 (stereo not drawn) — within 1.5-fold, 962 nM
- Cc1cc(F)ccc1-c1nc(N(C)CCN(C)C(=O)N(C)c2ccccc2)nc2c1ccc(=O)n2-c1c(F)cccc1F — within 1.5-fold, 1240 nM
- C1=CN(Cc2ccccc2)C=CC1=C1C=Nc2ccccc21 — within 1.5-fold, 756 nM
- Cc1cc(C)cc(N2C(N)=NC(N)=NC2(C)C)c1 — 26-fold lower, 42 nM
- CCCC(C)NC[C@@H](O)[C@H](Cc1ccccc1)NC(=O)c1cc(C2CCCC2)cc(N2CCCCS2(=O)=O)c1 (stereo partly drawn) — 7.3-fold lower, 147 nM
- O=C(Nc1ccc2c(c1)CCNCC2)c1ccc(-c2ccc(Cl)cc2)cc1 — within 1.5-fold, 814 nM
- Cc1cnc(CN(Cc2ccc(-c3ccc(CNCCc4ccc(S(C)(=O)=O)cc4)cn3)cc2)C(=O)c2ccc([N+](=O)[O-])c(C)c2)cn1 — within 1.5-fold, 919 nM
- Cc1c(F)cc(C(=O)NC2CC2)cc1-c1ccc2c(cnn2S(=O)(=O)c2ccc(Cl)s2)c1 — 2.8-fold lower, 391 nM
- COc1ccc(Nc2nc(C)cc(NCc3ccc(-c4c(C)noc4C)cc3)n2)cc1 — within 1.5-fold, 844 nM
- O=C(Nc1ccc(C(=O)OCC2CCCN3CCCCC23)cc1)c1ccc([N+](=O)[O-])cc1 (stereo not drawn) — 1.5-fold lower, 716 nM
- CC(O)C1CCCCN1C(=O)c1cccc(-c2ccc(-c3nc4cc(F)ccc4[nH]3)cc2)c1 (stereo not drawn) — within 1.5-fold, 742 nM
- CSc1sc(NC(=O)Nc2cccc(C(F)(F)F)c2)cc1C#N — within 1.5-fold, 912 nM
